Where “and” joins values, the source holds several entries; their conditions need not be identical. Equal values may be shown once.
Assays:
SfurOBP11 = SfurOBP11 (Sogatella furcifera, UniProt V5T6E3); test: biochemical; type: binding
Method in brief: (§1)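 In 50 mM Tris-HCl pH 7.4, odorants displace 1-NPN (2.0 µM) from 2.0 µM protein. Emission at 390–490 nm under 337 nm excitation is measured 2 min after competitor addition, in triplicate. Ki is obtained from IC50 and the 1-NPN dissociation constant.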

SfurOBP1 = SfurOBP1 (Sogatella furcifera, UniProt V5T8N5); test: biochemical; type: binding; details: for Fluorescence competitive binding assay, fluorescence intensity: OBP1, three replicate columns
Method in brief: as §1

SfurOBP2 = SfurOBP2 (Sogatella furcifera, UniProt V5T759); test: biochemical; type: binding
Method in brief: as §1

SfurOBP3 = SfurOBP3 (Sogatella furcifera, UniProt V5T818); test: biochemical; type: binding; details: for Fluorescence competitive binding assay, fluorescence intensity: OBP3, three replicate columns
Method in brief: as §1

S. furcifera adults = test: Y-tube olfactometer behavioral trials; type: in vivo, Sogatella furcifera; details: odorant 50 µL/L vs hexane; adults
Method in brief: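 Single S. furcifera adults (2 days post-emergence, starved 0.5 h) chose between odorant (100 µL of 50 µL/L on filter paper) and hexane control in a glass Y-tube, charcoal-filtered humidified air 300 mL/min per arm, 25 ± 1 °C, 50% RH. Choice scored if insect passed half an arm and stayed >1 min within 10 min; 45 insects per compound, chi-squared test.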

Sequence of SfurOBP1 (V5T8N5 entry or part of it): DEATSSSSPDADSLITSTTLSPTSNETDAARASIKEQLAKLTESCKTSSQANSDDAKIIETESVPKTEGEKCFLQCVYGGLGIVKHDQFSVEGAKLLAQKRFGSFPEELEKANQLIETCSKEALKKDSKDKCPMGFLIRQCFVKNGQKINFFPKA
Sequence of SfurOBP3 (V5T818 entry or part of it): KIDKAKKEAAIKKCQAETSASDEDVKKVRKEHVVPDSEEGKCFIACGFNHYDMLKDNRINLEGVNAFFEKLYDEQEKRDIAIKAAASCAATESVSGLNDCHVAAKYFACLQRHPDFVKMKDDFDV
Sequence of SfurOBP2 (V5T759 entry or part of it): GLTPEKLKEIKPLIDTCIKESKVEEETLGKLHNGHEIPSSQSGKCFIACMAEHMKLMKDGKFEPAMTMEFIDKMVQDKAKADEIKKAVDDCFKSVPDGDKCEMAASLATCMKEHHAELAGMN
Sequence of SfurOBP11 (V5T6E3 entry or part of it): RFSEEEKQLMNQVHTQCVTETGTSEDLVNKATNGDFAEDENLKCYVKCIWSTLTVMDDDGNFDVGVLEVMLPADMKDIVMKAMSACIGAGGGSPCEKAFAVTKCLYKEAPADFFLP

With CCCCCCC=CCO [2-nonen-1-ol] the IC50 (SfurOBP11; SfurOBP11, protein and 1-NPN both 2.0 µM, competitor 2-20 µM, read-out: IC50) was > 20 µM, the “Fluorescence intensity, fluorescence competitive binding assay, OBP11” value (“Fluorescence intensity … OBP11” for short) (SfurOBP11; ligand concentration 2, replicate 1) was 37643 and the “Fluorescence intensity … OBP11” value (SfurOBP11; ligand concentration 2, replicate 2) was 35290. The “Fluorescence intensity … OBP11” value (SfurOBP11; ligand concentration 2, replicate 3) was 44360, the “Fluorescence intensity … OBP11” value (SfurOBP11; ligand concentration 4, replicate 1) was 35859 and the “Fluorescence intensity … OBP11” value (SfurOBP11; ligand concentration 4, replicate 2) was 39342. The “Fluorescence intensity … OBP11” value (SfurOBP11; ligand concentration 4, replicate 3) was 34938, the “Fluorescence intensity … OBP11” value (SfurOBP11; ligand concentration 6, replicate 1) was 34140 and the “Fluorescence intensity … OBP11” value (SfurOBP11; ligand concentration 6, replicate 2) was 38169. The “Fluorescence intensity … OBP11” value (SfurOBP11; ligand concentration 6, replicate 3) was 36155, the “Fluorescence intensity … OBP11” value (SfurOBP11; ligand concentration 8, replicate 1) was 32705 and the “Fluorescence intensity … OBP11” value (SfurOBP11; ligand concentration 8, replicate 2) was 34472. The “Fluorescence intensity … OBP11” value (SfurOBP11; ligand concentration 8, replicate 3) was 34378, the “Fluorescence intensity … OBP11” value (SfurOBP11; ligand concentration 10, replicate 1) was 32486 and the “Fluorescence intensity … OBP11” value (SfurOBP11; ligand concentration 10, replicate 2) was 33152. The “Fluorescence intensity … OBP11” value (SfurOBP11; ligand concentration 10, replicate 3) was 33818, the “Fluorescence intensity … OBP11” value (SfurOBP11; ligand concentration 12, replicate 1) was 28113 and the “Fluorescence intensity … OBP11” value (SfurOBP11; ligand concentration 12, replicate 2) was 29890. The “Fluorescence intensity … OBP11” value (SfurOBP11; ligand concentration 12, replicate 3) was 30957, the “Fluorescence intensity … OBP11” value (SfurOBP11; ligand concentration 14, replicate 1) was 27880 and the “Fluorescence intensity … OBP11” value (SfurOBP11; ligand concentration 14, replicate 2) was 28227. For the same compound, the “Fluorescence intensity … OBP11” value (SfurOBP11; ligand concentration 14, replicate 3) was 28574, the “Fluorescence intensity … OBP11” value (SfurOBP11; ligand concentration 16, replicate 1) was 24059 and the “Fluorescence intensity … OBP11” value (SfurOBP11; ligand concentration 16, replicate 2) was 25490. For the same compound, the “Fluorescence intensity … OBP11” value (SfurOBP11; ligand concentration 16, replicate 3) was 25182, the “Fluorescence intensity … OBP11” value (SfurOBP11; ligand concentration 18, replicate 1) was 30643 and the “Fluorescence intensity … OBP11” value (SfurOBP11; ligand concentration 18, replicate 2) was 29725. The “Fluorescence intensity … OBP11” value (SfurOBP11; ligand concentration 18, replicate 3) was 31591, the “Fluorescence intensity … OBP11” value (SfurOBP11; ligand concentration 20, replicate 1) was 30015 and the “Fluorescence intensity … OBP11” value (SfurOBP11; ligand concentration 20, replicate 2) was 28576. For the same compound, the “Fluorescence intensity … OBP11” value (SfurOBP11; ligand concentration 20, replicate 3) was 24669, the “Fluorescence competitive binding assay, fluorescence intensity” value (SfurOBP1; ligand concentration 2 (μM)) was 6522 and 6473 and 6498 and the “Fluorescence competitive binding assay, fluorescence intensity” value (SfurOBP1; ligand concentration 4 (μM)) was 5655 and 6432 and 6908. For the same compound, the “Fluorescence competitive binding assay, fluorescence intensity” value (SfurOBP1; ligand concentration 6 (μM)) was 8453 and 7604 and 7714, the “Fluorescence competitive binding assay, fluorescence intensity” value (SfurOBP1; ligand concentration 8 (μM)) was 8297 and 7919 and 6967 and the “Fluorescence competitive binding assay, fluorescence intensity” value (SfurOBP1; ligand concentration 10 (μM)) was 6386 and 8717 and 6918. For the same compound, the “Fluorescence competitive binding assay, fluorescence intensity” value (SfurOBP1; ligand concentration 12 (μM)) was 6193 and 7108 and 6694, the “Fluorescence competitive binding assay, fluorescence intensity” value (SfurOBP1; ligand concentration 14 (μM)) was 6199 and 6820 and 8443 and the “Fluorescence competitive binding assay, fluorescence intensity” value (SfurOBP1; ligand concentration 16 (μM)) was 5457 and 5916 and 5787. For the same compound, the “Fluorescence competitive binding assay, fluorescence intensity” value (SfurOBP1; ligand concentration 18 (μM)) was 6097 and 9706 and 8104, the “Fluorescence competitive binding assay, fluorescence intensity” value (SfurOBP1; ligand concentration 20 (μM)) was 6801 and 6290 and 6295 and the IC50 (SfurOBP1; SfurOBP1, protein and 1-NPN both 2.0 µM, competitor 2-20 µM, read-out: IC50) was > 20 µM. The IC50 (SfurOBP2; SfurOBP2, protein and 1-NPN both 2.0 µM, competitor 2-20 µM, read-out: IC50) was > 20 µM, the “Fluorescence competitive binding assay, OBP2 (raw fluorescence reading)” value (SfurOBP2; ligand concentration 2 (unit not given), replicate column 1 of 3) was 23899 and the “Fluorescence competitive binding assay, OBP2 (raw fluorescence reading)” value (SfurOBP2; ligand concentration 2 (unit not given), replicate column 2 of 3) was 21462. The “Fluorescence competitive binding assay, OBP2 (raw fluorescence reading)” value (SfurOBP2; ligand concentration 2 (unit not given), replicate column 3 of 3) was 22264, the “Fluorescence competitive binding assay, OBP2 (raw fluorescence reading)” value (SfurOBP2; ligand concentration 4 (unit not given), replicate column 1 of 3) was 25374 and the “Fluorescence competitive binding assay, OBP2 (raw fluorescence reading)” value (SfurOBP2; ligand concentration 4 (unit not given), replicate column 2 of 3) was 25147. The “Fluorescence competitive binding assay, OBP2 (raw fluorescence reading)” value (SfurOBP2; ligand concentration 4 (unit not given), replicate column 3 of 3) was 24357, the “Fluorescence competitive binding assay, OBP2 (raw fluorescence reading)” value (SfurOBP2; ligand concentration 6 (unit not given), replicate column 1 of 3) was 25139 and the “Fluorescence competitive binding assay, OBP2 (raw fluorescence reading)” value (SfurOBP2; ligand concentration 6 (unit not given), replicate column 2 of 3) was 24429. For the same compound, the “Fluorescence competitive binding assay, OBP2 (raw fluorescence reading)” value (SfurOBP2; ligand concentration 6 (unit not given), replicate column 3 of 3) was 24096, the “Fluorescence competitive binding assay, OBP2 (raw fluorescence reading)” value (SfurOBP2; ligand concentration 8 (unit not given), replicate column 1 of 3) was 22380 and the “Fluorescence competitive binding assay, OBP2 (raw fluorescence reading)” value (SfurOBP2; ligand concentration 8 (unit not given), replicate column 2 of 3) was 22288. The “Fluorescence competitive binding assay, OBP2 (raw fluorescence reading)” value (SfurOBP2; ligand concentration 8 (unit not given), replicate column 3 of 3) was 21248, the “Fluorescence competitive binding assay, OBP2 (raw fluorescence reading)” value (SfurOBP2; ligand concentration 10 (unit not given), replicate column 1 of 3) was 20934 and the “Fluorescence competitive binding assay, OBP2 (raw fluorescence reading)” value (SfurOBP2; ligand concentration 10 (unit not given), replicate column 2 of 3) was 21198. For the same compound, the “Fluorescence competitive binding assay, OBP2 (raw fluorescence reading)” value (SfurOBP2; ligand concentration 10 (unit not given), replicate column 3 of 3) was 20778, the “Fluorescence competitive binding assay, OBP2 (raw fluorescence reading)” value (SfurOBP2; ligand concentration 12 (unit not given), replicate column 1 of 3) was 19074 and the “Fluorescence competitive binding assay, OBP2 (raw fluorescence reading)” value (SfurOBP2; ligand concentration 12 (unit not given), replicate column 2 of 3) was 19350. For the same compound, the “Fluorescence competitive binding assay, OBP2 (raw fluorescence reading)” value (SfurOBP2; ligand concentration 12 (unit not given), replicate column 3 of 3) was 18397, the “Fluorescence competitive binding assay, OBP2 (raw fluorescence reading)” value (SfurOBP2; ligand concentration 14 (unit not given), replicate column 1 of 3) was 16875 and the “Fluorescence competitive binding assay, OBP2 (raw fluorescence reading)” value (SfurOBP2; ligand concentration 14 (unit not given), replicate column 2 of 3) was 19948. For the same compound, the “Fluorescence competitive binding assay, OBP2 (raw fluorescence reading)” value (SfurOBP2; ligand concentration 14 (unit not given), replicate column 3 of 3) was 17641, the “Fluorescence competitive binding assay, OBP2 (raw fluorescence reading)” value (SfurOBP2; ligand concentration 16 (unit not given), replicate column 1 of 3) was 16016 and the “Fluorescence competitive binding assay, OBP2 (raw fluorescence reading)” value (SfurOBP2; ligand concentration 16 (unit not given), replicate column 2 of 3) was 16681. For the same compound, the “Fluorescence competitive binding assay, OBP2 (raw fluorescence reading)” value (SfurOBP2; ligand concentration 16 (unit not given), replicate column 3 of 3) was 14367, the “Fluorescence competitive binding assay, OBP2 (raw fluorescence reading)” value (SfurOBP2; ligand concentration 18 (unit not given), replicate column 1 of 3) was 17119 and the “Fluorescence competitive binding assay, OBP2 (raw fluorescence reading)” value (SfurOBP2; ligand concentration 18 (unit not given), replicate column 2 of 3) was 16819. For the same compound, the “Fluorescence competitive binding assay, OBP2 (raw fluorescence reading)” value (SfurOBP2; ligand concentration 18 (unit not given), replicate column 3 of 3) was 15979, the “Fluorescence competitive binding assay, OBP2 (raw fluorescence reading)” value (SfurOBP2; ligand concentration 20 (unit not given), replicate column 1 of 3) was 16047 and the “Fluorescence competitive binding assay, OBP2 (raw fluorescence reading)” value (SfurOBP2; ligand concentration 20 (unit not given), replicate column 2 of 3) was 15694. For the same compound, the “Fluorescence competitive binding assay, OBP2 (raw fluorescence reading)” value (SfurOBP2; ligand concentration 20 (unit not given), replicate column 3 of 3) was 13725, the “Fluorescence competitive binding assay, fluorescence intensity” value (SfurOBP3; ligand concentration 2) was 69777 and 64977 and 64069 and the “Fluorescence competitive binding assay, fluorescence intensity” value (SfurOBP3; ligand concentration 4) was 69897 and 66654 and 59281. For the same compound, the “Fluorescence competitive binding assay, fluorescence intensity” value (SfurOBP3; ligand concentration 6) was 72805 and 63593 and 63408, the “Fluorescence competitive binding assay, fluorescence intensity” value (SfurOBP3; ligand concentration 8) was 68908 and 64822 and 61456 and the “Fluorescence competitive binding assay, fluorescence intensity” value (SfurOBP3; ligand concentration 10) was 63843 and 54968 and 55110. For the same compound, the “Fluorescence competitive binding assay, fluorescence intensity” value (SfurOBP3; ligand concentration 12) was 59021 and 51372 and 52724, the “Fluorescence competitive binding assay, fluorescence intensity” value (SfurOBP3; ligand concentration 14) was 52703 and 46147 and 50940 and the “Fluorescence competitive binding assay, fluorescence intensity” value (SfurOBP3; ligand concentration 16) was 47036 and 45518 and 44907. For the same compound, the “Fluorescence competitive binding assay, fluorescence intensity” value (SfurOBP3; ligand concentration 18) was 49989 and 48773 and 43710, the “Fluorescence competitive binding assay, fluorescence intensity” value (SfurOBP3; ligand concentration 20) was 40319 and 40656 and 42300 and the IC50 (SfurOBP3; SfurOBP3, protein and 1-NPN both 2.0 µM, competitor 2-20 µM, read-out: IC50) was > 20 µM. For the same compound, the “number of insects choosing hexane arm” value (S. furcifera adults) was 12, the “number of insects choosing volatilies arm” value (S. furcifera adults) was 18 and the “number of insects failed (no choice)” value (S. furcifera adults) was 10.
